Where two headings read alike, the source gives them in different places.
Biological target: AM2 (Influenza A virus, UniProt P0DOF5)
Assay: biochemical
Format: biochemical
Settings: for % Activity: AM2; for change of potency on replacing or installing the head group: compared with the parent compound (BL-1743; 12 for 13)

Chain of AM2 (P0DOF5 whole entry): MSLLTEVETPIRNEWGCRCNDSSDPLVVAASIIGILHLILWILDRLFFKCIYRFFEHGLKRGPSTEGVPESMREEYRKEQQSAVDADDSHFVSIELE

| Compound | % Activity | change of potency on replacing or installing the head group | also measured |
| --- | --- | --- | --- |
| O=C1CCCC(=O)C12CCNCC2 [Compound 10, 3-Aza-spiro[5.5]undecane-7,11-dione] | 100% |  | IC50 (SAR of BL-1743, read-out: IC50): > 100 µM; activity at 100 μM (at 100 μM tested): no activity |
| NC(=S)N1CCC2(CCCCC2)CC1 [Compound 5, 3-Aza-spiro[5,5]undecane-3-carbothioic acid amide] | 60% | no improvement of potency |  |
| CC1(C)CCNCC1.Cl [Compound 22, 4,4-Dimethyl-piperidine hydrochloride] | 22 (55%) |  |  |
| CNC1CC2CC1C1CCCC21 (stereo not drawn) [Compound 17, N-methyl-N-tricyclo[5.2.1.0 2,6]dec-8-ylaminium chloride] |  |  | IC50: 13.6 µM |
| S=C1CCCC(=S)C12CCNCC2 [Compound 11, 3-Aza-spiro[5.5]undecane-7,11-dithione] | 12% |  | IC50 (SAR of BL-1743, read-out: IC50): 37.6 µM |
| CN1CCC2(CCCCC2)CC1.Cl [Compound 3, 3-methyl-3-azoniaspiro[5.5]undecane chloride] | 7% |  | IC50 (Table 1, read-out: IC50): 20.6 µM |
| C1CCC2(CC1)CCNC2.Cl [Compound 23, 2-Aza-spiro[4.5]decane hydrochloride] | 23 (6%) |  |  |
| C1CCC2CN(C3=NCCN3)CCC2C1 (mixture of isomers) [Compound 15, 2-(octahydroisoquinolin-2(1H)-yl)-4,5-dihydro-1H-imidazol-1-ium iodide] |  |  | IC50: 29.5 µM |
| N=C(N)N1CCC2(CCCCC2)CC1 [Compound 7, 3-Aza-spiro[5,5]undecane-3-carboxamidine] | 13% | Increases of potency | IC50 (Table 1, read-out: IC50): 22.8 µM |
| C1CCC2(C1)CCNCC2 [Compound 12, 8-Aza-spiro[4.5]decane] | 12 (16.2%) |  | IC50 (Table 1, read-out: IC50): 8.14 µM |
| NC1CC2CC1C1CCCC21 (stereo not drawn) [Compound 16, tricyclo[5.2.1.0 2,6]dec-8-ylaminium chloride] |  |  | IC50: 15.3 µM |
| NS(=O)(=O)N1CCC2(CCCCC2)CC1 [Compound 6, 3-Aza-spiro[5,5]undecane-3-sulfonic acid amide] | 6 (14%) | Increases of potency | IC50 (Table 1, read-out: IC50): 15.3 µM |
| NC(=O)N1CCC2(CCCCC2)CC1 [Compound 4, 3-Aza-spiro[5.5]undecane-3-carboxylic acid amide] | 30% | no improvement of potency |  |
| C1CCC2(C1)CCN(C1=NCCN1)CC2 [Compound 13, 8-(4,5-Dihydro-1H-imidazol-2-yl)-8-aza-spiro[4.5]decane] |  | detrimental to the activity |  |
| OC(c1cnc[nH]1)N1CCC2(CCCCC2)CC1 (stereo not drawn) [Compound 19, (3-Aza-spiro[5.5]undec-3-yl)-(3H-imidazol-4-yl)-methanol] | 30% |  |  |
| NC1CCC2(CCCCC2)CC1 [Compound 8, Spiro[5.5]undec-3-ylamine] | 11% |  |  |

Reference: US9453005B2, “Inhibition of influenza M2 proton channel” (The Trustees Of The University Of Pennsylvania, priority 2008, dated 2016)
